Structures can show the parent of a compound that is named as a salt.
What was measured:
[1] = molecular target: native histamine H3 receptor (Rattus norvegicus, UniProt Q9QYN8); test: in vitro affinity assay on native histamine H3 receptor, [3H]-N-α-methylhistamine binding, adult rat brain membrane preparation; conditions: rat brain membranes, read-out: Ki with respect to H3 receptors
Description: More particularly, the compounds of the invention are histamine H3-receptor antagonists. H3 receptors are known to those skilled in the art and their advantage in therapeutics has been described in the literature (“Histamine H3 receptor antagonists” Exp. Opinion Ther. Patents (2000) 10 (7):1045-1055). Thus, the compounds of the invention of formula I were subjected to an in vitro affinity assay on the native histamine H3 receptor in an adult rat brain membrane preparation, by specific binding of [^3H]-N-α-methylhistamine to this receptor, according to the methods described by A. Korte et al., in Biochem. Biophys. Res. Commun. 168, 979-986 (1990) and by R. E. West Jr. et al., in Mol. Pharmacol. 38, 610-613 (1990).

[2] = molecular target: T1, human histamine H3 receptor transfected into CHO cells (Homo sapiens, UniProt Q9Y5N1); test: cAMP formation assay, inhibition of R-α-methylhistamine agonism, CHO cells (EIA kit); format: cell-based; conditions: human H3 in CHO cells, EIA kit (Amersham)
T1 construct: expressed in transfected cells; host or cells: CHO cells
Procedure: The compounds of the invention of formula I were also subjected to a cAMP formation assay, on the human histamine H3 receptor transfected into CHO cells, by inhibition of the agonism caused by the specific binding of R-α-methylhistamine to this receptor, according to the methods described by T. W. Lovenberg et al., in J. Pharmacol. Exp. Ther. 293, 771-778 (2000).
By way of example, compound 15, included in Table 1, has an IC50<10 nM, using an EIA kit (Amersham) to measure cAMP formation, on the human histamine H3 receptor transfected into CHO cells, by inhibition of the agonism caused by the specific binding of R-α-methylhistamine to this receptor.

[3] = test system: food intake; test: food intake in rats fasting for 24 h; format: in vivo, Wistar rats; conditions: 10 mg/kg i.p., during the first hour after administration, rats fasted 24 h
Procedure: Furthermore, the compounds of the invention of formula I were subjected to in vivo tests showing their ability to reduce food intake in rats fasting for 24 h.
The experiments were carried out on Wistar rats. The rats were placed individually in transparent plastic cages 48×26, 5×21.5 cm. These cages were placed in a room insulated against any noise, at a temperature of 20 to 22° C., with a light cycle from 7 o'clock in the morning to 7 o'clock in the evening, the rats having free access to water and to the food.
Before the experiment was carried out, the rats were made to fast for 24 h, with access, however, to water ad libitum. On the day of the experiment, the carrier or the compound according to the present invention was administered i.p. or p.o., 15 or 30 minutes before a known amount of food (30 g) was made available.
Each hour, for 6 hours, the amount of food ingested by the rat was measured.

Chain of native histamine H3 receptor (Q9QYN8 1-397 isoform Q9QYN8-3): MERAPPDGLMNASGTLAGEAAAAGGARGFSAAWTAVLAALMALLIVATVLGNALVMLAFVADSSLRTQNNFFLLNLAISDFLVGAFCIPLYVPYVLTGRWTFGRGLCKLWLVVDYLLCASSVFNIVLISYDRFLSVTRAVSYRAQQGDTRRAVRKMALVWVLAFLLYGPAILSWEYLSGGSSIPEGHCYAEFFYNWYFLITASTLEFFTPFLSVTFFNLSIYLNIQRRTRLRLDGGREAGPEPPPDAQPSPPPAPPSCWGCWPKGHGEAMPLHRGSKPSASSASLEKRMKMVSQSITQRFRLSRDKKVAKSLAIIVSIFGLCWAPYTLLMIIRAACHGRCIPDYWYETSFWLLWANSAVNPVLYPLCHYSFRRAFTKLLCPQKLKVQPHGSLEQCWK
T1 sequence (Q9Y5N1 whole entry): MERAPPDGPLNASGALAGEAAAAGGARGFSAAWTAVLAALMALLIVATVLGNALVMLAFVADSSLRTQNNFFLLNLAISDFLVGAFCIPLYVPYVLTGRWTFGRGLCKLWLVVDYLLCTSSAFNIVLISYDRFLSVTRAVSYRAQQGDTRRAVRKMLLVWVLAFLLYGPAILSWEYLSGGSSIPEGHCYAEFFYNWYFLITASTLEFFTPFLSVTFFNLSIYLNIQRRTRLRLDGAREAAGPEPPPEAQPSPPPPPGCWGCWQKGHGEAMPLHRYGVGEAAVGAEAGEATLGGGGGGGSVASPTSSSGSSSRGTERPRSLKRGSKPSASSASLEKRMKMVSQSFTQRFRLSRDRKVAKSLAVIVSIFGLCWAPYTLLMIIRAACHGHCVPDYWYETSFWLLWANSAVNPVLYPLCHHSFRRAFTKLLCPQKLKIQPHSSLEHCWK

| SMILES | melting point [°C] | also measured |
| --- | --- | --- |
| CCN(CC)CCCNS(=O)(=O)c1ccc2c(c1)CN(CC1CC1)CC2 (as salt: oxalate) [compound 6, 2-(cyclopropylmethyl)-N-[3-(diethylamino)propyl]-1,2,3,4-tetrahydroisoquinoline-7-sulfonamide] | 98 to 103 |  |
| COc1ccc(OC)c(CN2CCc3ccc(S(=O)(=O)NCCC4CCCN4C)cc3C2)c1 (racemic) (as salt: oxalate) [compound 31, (+/−)-2-(2,5-dimethoxybenzyl)-N-[2-(1-methylpyrrolidin-2-yl)ethyl]-1,2,3,4-tetrahydroisoquinoline-7-sulfonamide] | 87 to 90 |  |
| O=S(=O)(NCCCN1CC=CC1)c1ccc2c(c1)CNCC2 (as salt: hydrochloride) [compound 13, N-[3-(2,5-dihydro-1H-pyrrol-1-yl)propyl]-1,2,3,4-tetrahydroisoquinoline-7-sulfonamide] | 228 to 231 |  |
| CN1CCCC1CCNS(=O)(=O)c1ccc2c(c1)CN(CC1CC1)CC2 (racemic) (as salt: oxalate) [compound 22, (+/−)-2-(cyclopropylmethyl)-N-[2-(1-methylpyrrolidin-2-yl)ethyl]-1,2,3,4-tetrahydroisoquinoline-7-sulfonamide] | 50 to 60 |  |
| O=S(=O)(NCCCN1CCCC1)c1ccc2c(c1)CNCC2 (as salt: hydrochloride) [compound 18, N-(3-pyrrolidin-1-ylpropyl)-1,2,3,4-tetrahydroisoquinoline-7-sulfonamide] | 237 to 241 |  |
| O=S(=O)(NCCCN1CCOCC1)c1ccc2c(c1)CNCC2 (as salt: hydrochloride) [compound 19, N-(3-morpholin-4-ylpropyl)-1,2,3,4-tetrahydroisoquinoline-7-sulfonamide] | 238 to 245 |  |
| O=S(=O)(NCCCN1CC=CCC1)c1ccc2c(c1)CNCC2 (as salt: hydrochloride) [compound 9, N-[3-(3,6-dihydropyridin-1(2H)-yl)propyl]-1,2,3,4-tetrahydroisoquinoline-7-sulfonamide] | > 250 |  |
| CCN(CC)CCCNS(=O)(=O)c1ccc2c(c1)CN(C1CCCCC1)CC2 (as salt: oxalate) [compound 14, 2-cyclohexyl-N-[3-(diethylamino)propyl]-1,2,3,4-tetrahydroisoquinoline-7-sulfonamide] | 55 to 60 |  |
| CN(C)CCCNS(=O)(=O)c1ccc2c(c1)CNCC2 (as salt: hydrochloride) | 230 to 234 |  |
| CCN(CC)CCCNS(=O)(=O)c1ccc2c(c1)CN(CC1CCCCC1)CC2 (as salt: oxalate) [compound 7, 2-(cyclohexylmethyl)-N-[3-(diethylamino)propyl]-1,2,3,4-tetrahydroisoquinoline-7-sulfonamide] | 144 to 147 |  |
| O=S(=O)(NCCCN1CCN(Cc2ccccc2)CC1)c1ccc2c(c1)CNCC2 (as salt: hydrochloride) [compound 17, N-[3-(4-benzylpiperazin-1-yl)propyl]-1,2,3,4-tetrahydroisoquinoline-7-sulfonamide] | 244 to 249 |  |
| CCN(CC)CCCNS(=O)(=O)c1ccc2c(c1)CN(C(C)C)CC2 (as salt: oxalate) [compound 10, N-[3-(diethylamino)propyl]-2-isopropyl-1,2,3,4-tetrahydroisoquinoline-7-sulfonamide] | 54 to 59 |  |
| CN1CCCC1CCNS(=O)(=O)c1ccc2c(c1)CN(Cc1ccc3c(c1)OCO3)CC2 (racemic) (as salt: oxalate) [compound 25, (+/−)-2-(1,3-benzodioxol-5-ylmethyl)-N-[2-(1-methylpyrrolidin-2-yl)ethyl]-1,2,3,4-tetrahydroisoquinoline-7-sulfonamide] | 106 to 109 |  |
| CN1CCCC1CCNS(=O)(=O)c1ccc2c(c1)CN(Cc1ccccc1)CC2 (racemic) (as salt: oxalate) [compound 23, (+/−)-2-benzyl-N-[2-(1-methylpyrrolidin-2-yl)ethyl]-1,2,3,4-tetrahydroisoquinoline-7-sulfonamide] | 77 to 82 |  |
| CN1CCCC1CCNS(=O)(=O)c1ccc2c(c1)CN(Cc1ccc(Br)cc1)CC2 (racemic) (as salt: oxalate) [compound 30, (+/−)-2-(4-bromobenzyl)-N-[2-(1-methylpyrrolidin-2-yl)ethyl]-1,2,3,4-tetrahydroisoquinoline-7-sulfonamide] | 86 to 110 |  |
| CCN(CC)CCCNS(=O)(=O)c1ccc2c(c1)CN(Cc1ccsc1)CC2 (as salt: oxalate) [compound 12, N-[3-(diethylamino)propyl]-2-(3-thienylmethyl)-1,2,3,4-tetrahydroisoquinoline-7-sulfonamide] | 89 to 95 |  |
| CN1CCCC1CCNS(=O)(=O)c1ccc2c(c1)CN(CC1CCCCC1)CC2 (racemic) [compound 15, (+/−)-2-(cyclohexylmethyl)-N-[2-(1-methylpyrrolidin-2-yl)ethyl]-1,2,3,4-tetrahydroisoquinoline-7-sulfonamide] |  | Ki [1]: 0.3 nM; IC50 [2]: < 10 nM |
| CCN(CC)CCCNS(=O)(=O)c1ccc2c(c1)CN(Cc1ccccc1)CC2 (as salt: oxalate) [compound 5, 2-benzyl-N-[3-(diethylamino)propyl]-1,2,3,4-tetrahydroisoquinoline-7-sulfonamide] | 91 to 95 |  |
| CCN(CC)CCCNS(=O)(=O)c1ccc2c(c1)CN(Cc1cccs1)CC2 (as salt: oxalate) [compound 11, N-[3-(diethylamino)propyl]-2-(2-thienylmethyl)-1,2,3,4-tetrahydroisoquinoline-7-sulfonamide] | 109 to 115 |  |
| O=S(=O)(NCCCN1CCCC1)c1ccc2c(c1)CN(CC1CCCCC1)CC2 (as salt: oxalate) [compound 21, 2-(cyclohexylmethyl)-N-(3-pyrrolidin-1-ylpropyl)-1,2,3,4-tetrahydroisoquinoline-7-sulfonamide] | 130 to 141 |  |
| Cc1cc(C)cc(CN2CCc3ccc(S(=O)(=O)NCCC4CCCN4C)cc3C2)c1 (racemic) (as salt: oxalate) [compound 34, (+/−)-2-(3,5-dimethyl-benzyl)-N-[2-(1-methylpyrrolidin-2-yl)ethyl]-1,2,3,4-tetrahydroisoquinoline-7-sulfonamide] | 121 to 125 |  |
| CC(C)c1ccc(CN2CCc3ccc(S(=O)(=O)NCCC4CCCN4C)cc3C2)cc1 (racemic) (as salt: oxalate) [compound 24, (+/−)-2-(4-isopropylbenzyl)-N-[2-(1-methylpyrrolidin-2-yl)ethyl]-1,2,3,4-tetrahydroisoquinoline-7-sulfonamide] | 103 to 110 |  |
| CC(C)c1ccc(CN2CCc3ccc(S(=O)(=O)NCCC4CCCN4C)cc3C2)cc1 (racemic) [compound 24, (+/−)-2-(4-isopropylbenzyl)-N-[2-(1-methylpyrrolidin-2-yl)ethyl]-1,2,3,4-tetrahydroisoquinoline-7-sulfonamide] |  | decrease of food intake [3]: 54% |
| CCC(C)CN1CCc2ccc(S(=O)(=O)NCCC3CCCN3C)cc2C1 (racemic) (as salt: oxalate) [compound 32, (+/−)-2-(2-methylbutyl)-N-[2-(1-methylpyrrolidin-2-yl)ethyl]-1,2,3,4-tetrahydroisoquinoline-7-sulfonamide] | 66 to 77 |  |
| CC1CCCCN1CCCNS(=O)(=O)c1ccc2c(c1)CNCC2 (racemic) (as salt: hydrochloride) | 65 to 70 |  |
| CN1CCc2ccc(S(=O)(=O)NCCCN3CC=CC3)cc2C1 (as salt: oxalate) [compound 16, N-[3-(2,5-dihydro-1H-pyrrol-1-yl)propyl]-2-methyl-1,2,3,4-tetrahydroisoquinoline-7-sulfonamide] | 99 to 104 |  |
| COc1cccc(CN2CCc3ccc(S(=O)(=O)NCCC4CCCN4C)cc3C2)c1 (racemic) (as salt: oxalate) [compound 33, (+/−)-2-(3-methoxybenzyl)-N-[2-(1-methylpyrrolidin-2-yl)ethyl]-1,2,3,4-tetrahydroisoquinoline-7-sulfonamide] | 80 to 107 |  |

From US8524700B2, “Tetrahydroisoquinoline sulfonamide derivatives, the preparation thereof, and the use of the same in therapeutics” (Sanofi, priority 2004, dated 2013)
